{
  "source": "patent EP0551200A1",
  "about": "“Protein phosphatase inhibitors for use in therapy” (priority 1992, dated 1993)",
  "key": {"[1]": {"test_system": "Egr-1 mRNA", "assay": "cells", "format": "cell-based, mouse", "method": "10 µg of RNA was applied to each lane and subjected to Northern blot analysis using an Egr-1 specific cDNA probe [1.6 kb Bgl II fragment (Sukhatme et al, Cell 53, 37-48, 1988)]. The same blots were rehybridized with actin or GADPH cDNA for normalizing the amount of RNA loaded. The blots were dried and autoradiographed. • (A). Time course of okadaic acid-induced Egr-1 and c-jun messages in primary human fibroblasts. Quiescent human fibroblasts were induced with 1 µM of okadaic acid for the time periods indicated. […] Time course of okadaic acid-induced Egr-1 message in Balb/c 3T3 cells. Quiescent Balb/c 3T3 cells were induced with okadaic acid (0.5µM) for the times indicated. • (C). Concentration dependent induction of Egr-1 message by okadaic acid in Balb/c 3T3 cells. Quiescent Balb/c 3T3 cells were induced with the indicated concentrations of okadaic acid for 1 h. As controls, different concentrations of DMSO were included. These corresponded to the amounts present in 0.25 µM okadaic acid (0.025% dimethyl sulphoxide (DMSO)) 0.5 µM okadaic acid (0.05% DMSO) and 1 µM okadaic acid (0.1%). • (D). Concentration dependent and time course induction of Egr-1 message by calyculin A. Quiescent Balb/c 3T3 cells were induced with different concentrations of calyculin A for 1 h. Northern analysis of this dose-dependent induction by calyculin A is shown on the left panel of the figure. […] Northern analysis of this time course induction by calyculin A is shown in the right panel of the figure. The same blot was rehybridized with pCMV-fos (Curran et al, Oncogene 2, 79-84, 1987) and pCMV-jun (Rauscher et al, 1988) shown in the middle panel. The blot was dried and autoradiographed.\nQuiescent primary human fibroblasts were incubated with okadaic acid (OA) or TPA for 1 or 3 h. The concentrations of OA and TPA were 0.5 µM and 120 ng/ml, respectively. The concentration of 1-(5-isoquinolinylsulfonyl)-2-methylpiperazine dihydrochloride (H7) and N-(2-guanidinoethyl)-5-isoquinolinesulphonamide dihydrochloride (HA1004) used was 25 µM. The cells were pre-treated for 15 min with H7 or HA1004 before they were induced by OA or TPA for 1 or 3 h. Cells were harvested, RNA was isolated and subjected to Northern blot analysis. The blot was probed with Egr-1 or GADPH cDNA. • (B). As a positive control, primary human fibroblasts were treated with TPA (30 ng/ml) for 1 h (1st lane). The fibroblasts were also pre-treated with H7 (25 µM) or HA1004 (25 µM) for 15 min before treatment with TPA for 1 h (2nd and 3rd lanes respectively). […] The blot was probed with Egr-1 or actin cDNA. • (C). Quiescent Balb/c 3T3 cells were incubated with OA, TPA or dBt-cAMP for 1 h or pre-treated with H7 (25 µM) or HA1004 (25 µM) for 15 min and then incubated with each of the agonists for 1 h. Cells were harvested, RNA was isolated and subjected to Northern blot analysis. The concentration of each agonist used was as follows: lane a: 0.5 µM of OA, lane b: 100 ng/ml of TPA, lane c: 1 mM of dBt-cAMP, lane d: H7 plus OA (0.5 µM), lane e: H7 plus TPA (100 ng/ml), lane f: H7 plus dBt-cAMP (1 mM), lane g: HA1004 plus OA (0.5 µM), lane h: HA1004 plus TPA (100 ng.ml), lane i: HA1004 plus dBt-cAMP (1mM). The blot was probed with Egr-1 or GADPH cDNA.\nCell Cultures and Reagents. Human diploid foreskin fibroblasts were a gift from Dr J Vilcek (New York University, New York). The cells were grown in MEM supplemented with 10% fetal bovine serum (Hyclone, Logan, UT, US), Mouse Balb/c 3T3 cells were purchased from the American Type Culture Collection and grown in Dulbecco's MEM (DMEM) supplemented with 10% fetal bovine serum. Okadaic acid, calyculin A, H7, and HA1004 were purchased from Biomol Research Laboratories (Plymouth Meeting, PA, US). TPA, puromycin and dBt-cAMP were purchased from Sigma (St Louis, MO, US) 1 mM stock solutions of okadaic acid or calyculin A were solubilized in DMSO. [³²P]orthophosphate and other radioactive chemicals were purchased from Du Pont-New England Nuclear (Boston, MA). […]"}, "[2]": {"test_system": "IL-6", "assay": "Northern blot analysis of IL-6 gene expression in human fibroblasts", "format": "cell-based", "conditions": "regularly maintained cells", "method": "Quiescent human fibroblasts were incubated with TNF (500 units/ml) (a) or OA (500 nM) (b) for 0, 30, 60 min after which total cellular RNA was extracted. Blots of RNA from these cells were hybridized to radiolabeled (10⁶ cpm/ml) Egr-1 cDNA probe. c, the blot in b was stripped and reprobed with c-jun cDNA. Note: Egr-1 mRNA probe was not completely stripped from the blot. The autoradiograph of the blot is presented. d, regularly maintained cells were incubated wither with no additions (control, 0 time) or with OA for 1, 3, 5, 7 h and Northern analysis was carried out with an IL-6 cDNA probe (ATCC, Rockville, MD, US).\nPreparation of RNA and Northern Analysis - Human fibroblasts (4 x 10⁶) were seeded in 175cm² tissue culture flasks and incubated at 37°C for 6 days in regular medium. The cells were fed with regular medium on day 3. On day 6 the medium was replaced by minimal essential medium containing 0.25% fetal calf serum and incubated for another 48 h to maintain the cells in a quiescent state. Quiescent or regularly maintained cells were treated with a specific agonist for the times indicated (see Fig. 7). The cells were harvested and total cytoplasmic RNA isolated by a one-step guanidinium thiocyanate/phenol/chloroform method. […] The blots were autoradiographed and quantitated by the Visage 2000 Image system (BioImage Products, Ann Arbor, MI, US)."}},
  "data": [
    {"smiles": "C=C1[C@@H](O)[C@@H]2O[C@]3(CC[C@H](/C=C/[C@@H](C)[C@@H]4CC(C)=C[C@@]5(O[C@H](C[C@@](C)(O)C(=O)O)CC[C@H]5O)O4)O3)CC[C@H]2O[C@@H]1[C@@H](O)C[C@H](C)[C@H]1O[C@@]2(CCCCO2)CC[C@H]1C", "note": "[okadaic acid]", "values": [
      {"measurement": "time for which the Egr-1 mRNA level is maintained", "setting": "[1]; 0.5 µM", "value": "up to 7 h"},
      {"measurement": "time of maximal induction of Egr-1 mRNA", "setting": "[1]; 0.5 µM", "value": "about 2 h"},
      {"measurement": "time to induction of Egr-1 mRNA", "setting": "[1]; 0.5 µM", "value": "≤ 1", "unit": "h"},
      {"measurement": "concentration inducing an equivalent fold increase in Egr-1 mRNA", "setting": "[1]; 1 h, calyculin A compared with okadaic acid", "value": 1000, "unit": "nM"},
      {"measurement": "fold induction at 0.5 µM", "setting": "[1]; Mus musculus, BALB/c3T3, 0.5 µM, maintained level, read-out: Egr-1 mRNA level over control", "value": "30 to 40"},
      {"measurement": "time of induction of IL-6", "setting": "[2]", "value": 7, "unit": "h"}
    ]}
  ]
}
